Format in all cases: in vitro ADME
A short description of series [1]: Protein binding via Rapid Equilibrium Dialysis - plasma. The conditions noted are these: Rat (SD) plasma, 2 μM. The text has this:
(§1) Table 20 provides results of in vitro and in vivo pharmacokinetics performed for each of the represented compounds.
(Equilibrium dialysis compares concentrations on both sides of a semipermeable membrane.)

Series [2] in a line: Microsomal stability assay (half-life), mouse. The conditions noted are these: Mouse (CD1) microsomes, read-out: Microsomal stability T1/2.
Excerpt: as §1

Series [3] in a line: Microsomal stability assay (half-life), human. The conditions noted are these: Human microsomes, read-out: Microsomal stability T1/2.
Excerpt: as §1

Series [4] can be described thus: Microsomal stability assay (half-life), rat. The conditions noted are these: Rat (SD) microsomes, read-out: Microsomal stability T1/2.
Excerpt: as §1

Data on two molecules can be found in patent US20220117958A1, “COMPOSITIONS AND METHODS FOR INHIBITING ACSS2” (THE TRUSTEES OF THE UNIVERSITY OF PENNSYLVANIA, priority 2018, published 2022).

Some results are limits rather than exact numbers.

Regarding `CC(=O)CC(c1ccccc1)c1c(O)c2ccccc2oc1=O` (stereo not shown) [Warfarin, reference compound], the “Protein binding, plasma: % Protein free” value in series [1] is 0.5177 % Protein free.
Turning to `CCOc1ccc2ccc(=O)oc2c1` [7-Ethoxycoumarin, reference compound], the half-life at 2 μM in series [2] was under 15 min; in series [3], 7.97 min; in series [4], 6.13 min.
